We go through twelve molecules from patent publication US8765728B2, “[1,5]-diazocin derivatives” (MelliTech, priority 2009, dated 2014).

The test system of this assay is Min6 cell. Kind of assay: Insulin secretion response of beta cell line to formula I compounds (insulin ELISA). Type of assay: cell-based. The settings on record: rank according to % increase versus control at most effective dose. An outline of the steps:
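After compound or vehicle exposure, Min6 cells were held 2 h in glucose-free medium and preincubated 30 min at 37° C in glucose-free KRBH (pH 7.4, 0.1% BSA). They were then incubated 30 min at 37° C in KRBH with varying glucose. Secreted insulin and acid-ethanol-extracted intracellular insulin were measured by ELISA.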
(In general: ELISA stands for enzyme-linked immunosorbent assay.)
On to `O=C1CCN(C[C@@H](O)COCc2ccccc2)c2ccc(Cl)cc2CN1C1CC1` [Compound 79, (R)-1-(3-(benzyloxy)-2-hydroxypropyl)-8-chloro-5-cyclopropyl-2,3,5,6-tetrahydrobenzo[b][1,5]diazocin-4(1H)-one], for which the “Insulin secretion (Min6 cell) Range 1 to 5” value was 1 (1: 90-110% of control). Under `O=C1CCNc2ccc3c(c2CN1C1CC1)OCCO3` [Compound 80, 11-cyclopropyl-2,3,8,9,11,12-hexahydro[1,4]dioxino[2,3-h][1,5]benzodiazocin-10(7H)-one] stands 3 (3: 120-140% of control); under `O=C1CCN(CC(O)COc2ccccc2)c2ccc(Cl)cc2CN1C1CC1` (stereo not drawn) [Compound 81, 8-chloro-5-cyclopropyl-1-(2-hydroxy-3-phenoxypropyl)-2,3,5,6-tetrahydrobenzo[b][1,5]diazocin-4(1H)-one], 1 (1: 90-110% of control); under `O=C(CN1CCC(=O)N(C2CC2)Cc2cc(Cl)ccc21)c1ccc(Cl)cc1` [Compound 82, 8-chloro-1-(2-(4-chlorophenyl)-2-oxoethyl)-5-cyclopropyl-2,3,5,6-tetrahydrobenzo[b][1,5]diazocin-4(1H)-one], 1 (1: 90-110% of control). Then `O=C(CN1CCC(=O)N(C2CC2)Cc2cc(Cl)ccc21)c1cccc(F)c1` [Compound 83, 8-chloro-5-cyclopropyl-1-(2-(3-fluorophenyl)-2-oxoethyl)-2,3,5,6-tetrahydrobenzo[b][1,5]diazocin-4(1H)-one], with 1 (1: 90-110% of control); and `COc1ccc2c(c1)CN(C1CC1)C(=O)CCN2C(=O)c1ccno1` [Compound 84, 5-cyclopropyl-1-(isoxazole-5-carbonyl)-8-methoxy-2,3,5,6-tetrahydrobenzo[b][1,5]diazocin-4(1H)-one], with 1 (1: 90-110% of control); and `O=C1CCN(CC(O)c2ccc(Cl)cc2)c2ccc(Cl)cc2CN1C1CC1` (stereo not drawn) [Compound 85, 8-chloro-1-(2-(4-chlorophenyl)-2-hydroxyethyl)-5-cyclopropyl-2,3,5,6-tetrahydrobenzo[b][1,5]diazocin-4(1H)-one], with 1 (1: 90-110% of control). Then `O=C1CCN(CC(O)c2cccc(F)c2)c2ccc(Cl)cc2CN1C1CC1` (stereo not drawn) [Compound 86, 8-chloro-5-cyclopropyl-1-(2-(3-fluorophenyl)-2-hydroxyethyl)-2,3,5,6-tetrahydrobenzo[b][1,5]diazocin-4(1H)-one], with 2 (2: 110-120% of control); and `O=C1CCN(C[C@@H](O)COCc2ccccc2)c2ccc3c(c2CN1C1CC1)OCCO3` [Compound 88, 7-[(2R)-3-(benzyloxy)-2-hydroxypropyl]-11-cyclopropyl-2,3,8,9,11,12-hexahydro[1,4]dioxino[2,3-h][1,5]benzodiazocin-10(7H)-one], with 1 (1: 90-110% of control); and `COc1ccc2c(c1)CN(C1CC1)C(=O)CCN2C[C@@H](O)COc1ccc(Cl)cc1` [Compound 89, (R)-1-(3-(4-chlorophenoxy)-2-hydroxypropyl)-5-cyclopropyl-8-methoxy-2,3,5,6-tetrahydrobenzo[b][1,5]diazocin-4(1H)-one], with 1 (1: 90-110% of control). For the molecule `COc1ccc2c(c1)CN(C1CC1)C(=O)CCN2C[C@H](O)COc1ccc(Cl)cc1` [Compound 90, (S)-1-(3-(4-chlorophenoxy)-2-hydroxypropyl)-5-cyclopropyl-8-methoxy-2,3,5,6-tetrahydrobenzo[b][1,5]diazocin-4(1H)-one], the “Insulin secretion (Min6 cell) Range 1 to 5” value is listed as 1 (1: 90-110% of control). Then `O=C(c1ccno1)N1CCC(=O)N(C2CC2)Cc2c1ccc1c2OCCO1` [Compound 91, 11-cyclopropyl-7-(isoxazol-5-ylcarbonyl)-2,3,8,9,11,12-hexahydro[1,4]dioxino[2,3-h][1,5]benzodiazocin-10(7H)-one], with 1 (1: 90-110% of control).
